According to ChEMBL document CHEMBL1671659, “In vitro and in vivo properties of dihydrophthalazine antifolates, a novel family of antibacterial drugs” (Antimicrob Agents Chemother, 2009):
Values after ≈ are worked out from the molar mass of the structure shown. Active and inactive are the calls of the source. The rule behind the calls is not given here.

Legend:
[1] = Inhibition of trimethoprim-resistant Staphylococcus aureus Type S1 dihydrofolate reductase
Staphylococcus aureus [2] = assay: Antibacterial activity against vancomycin, trimethoprim, methicillin-resistant Staphylococcus aureus VRS1 harboring dfrA and dfrB genes; type: functional
Dihydrofolate reductase = Dihydrofolate reductase (Staphylococcus aureus, UniProt P0A017, F99Y); assay: Inhibition of trimethoprim-resistant Staphylococcus aureus DfrB type dihydrofolate reductase F98Y mutant
[3] = system: Staphylococcus epidermidis; assay: Antibacterial activity against methicillin, vancomycin, trimethoprim-sensitive Staphylococcus epidermidis ATCC 14990 harboring dfrC gene; type: functional
Staphylococcus aureus [4] = assay: Antibacterial activity against vancomycin, trimethoprim-sensitive and methicillin-resistant Staphylococcus aureus ATCC 43300 harboring dfrB gene; type: functional
[5] = Inhibition of trimethoprim-sensitive Staphylococcus aureus DfrB type dihydrofolate reductase
Staphylococcus aureus [6] = assay: Antibacterial activity against methicillin, vancomycin, trimethoprim-sensitive Staphylococcus aureus ATCC 29213 harboring dfrB gene; type: functional
[7] = system: Staphylococcus epidermidis; assay: Antibacterial activity against methicillin, vancomycin-sensitive and trimethoprim-resistant Staphylococcus epidermidis BAS000635 harboring dfrC and dfrA genes; type: functional
Enterococcus faecium [8] = assay: Antibacterial activity against vancomycin-resistant dfrE-negative and folA, dfrF-positive Enterococcus faecium; type: functional
Enterococcus faecium [9] = assay: Antibacterial activity against Enterococcus faecium in presence of 250 ug/ml thymidine; type: functional
Streptococcus pneumoniae [10] = assay: Antibacterial activity against Streptococcus pneumoniae in presence of 250 ug/ml thymidine; type: functional
[11] = system: Staphylococcus epidermidis; assay: Antibacterial activity against methicillin-sensitive dfrA, dfrD-negative Staphylococcus epidermidis harboring F98Y mutation in dfrC gene; type: functional
Enterococcus faecium [12] = assay: Antibacterial activity against Enterococcus faecium; type: functional
Enterococcus faecium [13] = assay: Antibacterial activity against Enterococcus faecium in presence of 50 ug/ml thymidine; type: functional
Staphylococcus aureus [14] = assay: Antibacterial activity against trimethoprim-resistant Staphylococcus aureus BAS003908 infected in NMRI mouse model of septicemia; type: functional
Staphylococcus aureus [15] = assay: Antibacterial activity against methicillin-resistant dfrB, dfrG-positive and dfrA-negative Staphylococcus aureus; type: functional
[16] = Tmax in NMRI mouse blood at 25 mg/kg administered through oral gavage measured after 7 hrs; type: ADME, organism-based; set-up: dose 25 mg/kg, route oral
Enterococcus faecalis [17] = assay: Antibacterial activity against Enterococcus faecalis; type: functional
[18] = Oral bioavailability in NMRI mouse; type: ADME, organism-based; conditions: in vivo
Enterococcus faecium [19] = assay: Antibacterial activity against vancomycin-sensitive dfrE, dfrF-negative and folA-positive Enterococcus faecium; type: functional
Haemophilus influenzae [20] = assay: Antibacterial activity against Haemophilus influenzae; type: functional
Streptococcus pneumoniae [21] = assay: Antibacterial activity against Streptococcus pneumoniae in presence of 50 ug/ml thymidine; type: functional
Enterococcus faecalis [22] = assay: Antibacterial activity against Enterococcus faecalis in presence of 250 ug/ml thymidine; type: functional
Enterococcus faecalis [23] = assay: Antibacterial activity against vancomycin-sensitive folA, dfrF-negative Enterococcus faecalis harboring A5T, K88N, F102Y mutation in dfrE gene; type: functional
Enterococcus faecalis [24] = assay: Antibacterial activity against vancomycin-sensitive dfrE, dfrF-positive and folA-negative Enterococcus faecalis; type: functional
Staphylococcus aureus [25] = assay: Antibacterial activity against methicillin-resistant dfrB, dfrA-positive and dfrA within SCCmec-N1, dfrG-negative Staphylococcus aureus; type: functional
[26] = Cmax in NMRI mouse blood at 25 mg/kg administered through oral gavage measured after 7 hrs; type: ADME, organism-based; set-up: dose 25 mg/kg, route oral
[27] = system: Staphylococcus epidermidis; assay: Antibacterial activity against methicillin-sensitive dfrA-positive and dfrD-negative Staphylococcus epidermidis harboring F98Y mutation in dfrC gene; type: functional
Mycobacterium avium = assay: Antibacterial activity against Mycobacterium avium assessed as inhibition of bacterial growth at <=4 ug/ml; type: functional; set-up: scale not given: the % may be the effect or the level left
Haemophilus influenzae [28] = assay: Antibacterial activity against Haemophilus influenzae in presence of 250 ug/ml thymidine; type: functional
Staphylococcus aureus [29] = assay: Antibacterial activity against trimethoprim-sensitive Staphylococcus aureus ATCC 29213 infected in NMRI mouse model of septicemia; type: functional
HeLa = assay: Cytotoxicity against human HeLa cells; type: cell-based
[30] = system: Staphylococcus epidermidis; assay: Antibacterial activity against methicillin-sensitive dfrC, dfrA-positive and dfrD-negative Staphylococcus epidermidis; type: functional
Staphylococcus aureus [31] = assay: Antibacterial activity against trimethoprim-resistant Staphylococcus aureus BAS003908; type: functional
[32] = AUC (0 to t) in NMRI mouse blood at 25 mg/kg administered through oral gavage after 7 hrs; type: ADME, organism-based; set-up: time < 7 hr, dose 25 mg/kg, route oral
Streptococcus pneumoniae [33] = assay: Antibacterial activity against Streptococcus pneumoniae
Staphylococcus aureus [34] = assay: Antibacterial activity against trimethoprim-sensitive Staphylococcus aureus ATCC 29213; type: functional
Enterococcus faecalis [35] = assay: Antibacterial activity against Enterococcus faecalis in presence of 50 ug/ml thymidine; type: functional
Enterococcus faecium [36] = assay: Antibacterial activity against vancomycin-resistant dfrE, dfrF-negative and folA-positive Enterococcus faecium; type: functional
[37] = system: Staphylococcus epidermidis; assay: Antibacterial activity against methicillin-resistant dfrC, dfrA-positive and dfrA within SCCmec-N1, dfrD-negative Staphylococcus epidermidis; type: functional
Staphylococcus aureus [38] = assay: Antibacterial activity against trimethoprim-sensitive Staphylococcus aureus ATCC 29213 infected in NMRI mouse model of septicemia assessed as succumbed to infections at 1.6 mg/kg, iv; type: functional, organism-based; set-up: dose 1.6 mg/kg
Haemophilus influenzae [39] = assay: Antibacterial activity against Haemophilus influenzae in presence of 50 ug/ml thymidine
[40] = system: Staphylococcus epidermidis; assay: Antibacterial activity against methicillin-sensitive dfrC-positive and dfrA, dfrD-negative Staphylococcus epidermidis; type: functional
Staphylococcus aureus [41] = assay: Antibacterial activity against methicillin-sensitive dfrB-positive abd dfrA, dfrG-negative Staphylococcus aureus; type: functional
Mus musculus [42] = assay: Hepatotoxicity in NMRI mouse assessed as increase in liver weight at 400 mg/kg administered through oral gavage for 5 days; type: toxicity, organism-based; set-up: dose 400 mg/kg, route oral; conditions: in vivo, 120 h
Staphylococcus aureus [43] = assay: Antibacterial activity against trimethoprim-sensitive Staphylococcus aureus ATCC 29213 infected in NMRI mouse model of septicemia assessed as complete protection from infections at 3.1 mg/kg, iv; type: functional, organism-based; set-up: dose 3.1 mg/kg
Mus musculus [44] = assay: Toxicity in po dosed NMRI mouse; type: organism-based; conditions: in vivo
Staphylococcus aureus [45] = assay: Antibacterial activity against methicillin-resistant dfrA within SCCmec-N1, dfrA and dfrG -negative Staphylococcus aureus harboring F98Y mutation in dfrB gene; type: functional

**Q.** Which IC50 [1] does the source give for `COc1cc(Cc2cnc(N)nc2N)cc(/C=C/C(=O)N2N=Cc3ccccc3[C@H]2c2cnc(N3CCOCC3)nc2)c1OC` here?
**A.** 2590 nM

**Q.** What about the MIC (Staphylococcus aureus [2]) of the same compound?
**A.** > 8 µg/mL

**Q.** What about the IC50 (Dihydrofolate reductase) of the same compound?
**A.** 5700 nM

**Q.** What about the MIC [3] of the same compound?
**A.** 1 µg/mL (≈ 1.65 µM)

**Q.** What about the MIC (Staphylococcus aureus [4]) of the same compound?
**A.** 2 µg/mL (≈ 3.29 µM)

**Q.** What about the IC50 [5] of the same compound?
**A.** 46.8 nM

**Q.** What about the MIC (Staphylococcus aureus [6]) of the same compound?
**A.** 4 µg/mL (≈ 6.58 µM)

**Q.** What about the MIC [7] of the same compound?
**A.** > 8 µg/mL

**Q.** For `COc1cc(Cc2cnc(N)nc2N)cc(/C=C/C(=O)N2N=Cc3ccccc3C2c2cnc(N(C)C)nc2)c1OC` (centres undefined), which MIC (Enterococcus faecium [8]) is on record?
**A.** > 128 µg/mL

**Q.** What about the MIC (Enterococcus faecium [9]) of the same compound?
**A.** ≥ 128 µg/mL

**Q.** What about the MIC (Streptococcus pneumoniae [10]) of the same compound?
**A.** ≥ 128 µg/mL

**Q.** And the MIC [11]?
**A.** 1 µg/mL (≈ 1.77 µM)

**Q.** What about the MIC (Enterococcus faecium [12]) of the same compound?
**A.** 2 µg/mL (≈ 3.54 µM)

**Q.** And the MIC (Enterococcus faecium [13])?
**A.** ≥ 128 µg/mL

**Q.** And the ED50 (Staphylococcus aureus [14])?
**A.** 3.1 mg/kg

**Q.** And the MIC (Staphylococcus aureus [15])?
**A.** 64 µg/mL (≈ 113 µM)

**Q.** And the Tmax [16]?
**A.** 2 h

**Q.** And the MIC (Staphylococcus aureus [2])?
**A.** 2 µg/mL (≈ 3.54 µM)

**Q.** And the IC50 (Dihydrofolate reductase)?
**A.** 70.2 nM

**Q.** And the MIC [3]?
**A.** 0.25 µg/mL (≈ 0.442 µM)

**Q.** What about the MIC (Enterococcus faecalis [17]) of the same compound?
**A.** 0.5 µg/mL (≈ 0.884 µM)

**Q.** What about the bioavailability [18] of the same compound?
**A.** 26%

**Q.** What about the MIC (Enterococcus faecium [19]) of the same compound?
**A.** ≤ 0.25 µg/mL

**Q.** And the MIC (Haemophilus influenzae [20])?
**A.** > 128 µg/mL

**Q.** What about the MIC (Staphylococcus aureus [4]) of the same compound?
**A.** 1 µg/mL (≈ 1.77 µM)

**Q.** What about the MIC (Streptococcus pneumoniae [21]) of the same compound?
**A.** 32 µg/mL

**Q.** And the IC50 [5]?
**A.** 11.3 nM

**Q.** And the MIC (Enterococcus faecalis [22])?
**A.** 1 µg/mL

**Q.** What about the MIC (Staphylococcus aureus [6]) of the same compound?
**A.** 0.5 µg/mL (≈ 0.884 µM)

**Q.** What about the MIC (Enterococcus faecalis [23]) of the same compound?
**A.** 0.5 µg/mL (≈ 0.884 µM)

**Q.** What about the MIC (Enterococcus faecalis [24]) of the same compound?
**A.** > 128 µg/mL

**Q.** What about the MIC (Staphylococcus aureus [25]) of the same compound?
**A.** 1 µg/mL (≈ 1.77 µM)

**Q.** What about the MIC (Staphylococcus aureus [25]; Staphylococcus aureus, read-out: MIC) of the same compound?
**A.** 2 µg/mL (≈ 3.54 µM)

**Q.** And the MIC [7]?
**A.** 2 µg/mL (≈ 3.54 µM)

**Q.** And the Cmax [26]?
**A.** 5390 ng/mL

**Q.** And the MIC [27]?
**A.** 1 µg/mL (≈ 1.77 µM)

**Q.** What about the Activity (Mycobacterium avium) of the same compound?
**A.** 77%

**Q.** And the MIC (Haemophilus influenzae [28])?
**A.** 32 µg/mL

**Q.** What about the ED50 (Staphylococcus aureus [29]) of the same compound?
**A.** 1.6 mg/kg

**Q.** What about the IC50 (HeLa) of the same compound?
**A.** 12000 nM

**Q.** What about the MIC [30] of the same compound?
**A.** 1 µg/mL (≈ 1.77 µM)

**Q.** What about the MIC (Staphylococcus aureus [31]) of the same compound?
**A.** 1 µg/mL (≈ 1.77 µM)

**Q.** What about the AUC(0-t) at 7 h [32] of the same compound?
**A.** 23400 ng·h/mL

**Q.** What about the MIC (Streptococcus pneumoniae [33]) of the same compound?
**A.** ≥ 128 µg/mL

**Q.** And the MIC (Staphylococcus aureus [34])?
**A.** 1 µg/mL (≈ 1.77 µM)

**Q.** And the MIC (Enterococcus faecalis [35])?
**A.** ≤ 0.25 µg/mL

**Q.** And the MIC (Enterococcus faecium [36])?
**A.** 2 µg/mL (≈ 3.54 µM)

**Q.** What about the MIC [37] of the same compound?
**A.** 0.5 µg/mL (≈ 0.884 µM)

**Q.** And the Activity (Staphylococcus aureus [38])?
**A.** inactive

**Q.** What about the MIC (Haemophilus influenzae [39]) of the same compound?
**A.** ≥ 128 µg/mL

**Q.** What about the MIC [40] of the same compound?
**A.** < 0.25 µg/mL

**Q.** And the MIC (Staphylococcus aureus [41])?
**A.** 1 µg/mL (≈ 1.77 µM)

**Q.** And the Activity (Mus musculus [42])?
**A.** < 10%

**Q.** And the Activity (Staphylococcus aureus [43])?
**A.** Active

**Q.** And the Activity (Mus musculus [44])?
**A.** 400 mg/kg

**Q.** And the MIC (Staphylococcus aureus [45])?
**A.** 1 µg/mL (≈ 1.77 µM)

**Q.** Which IC50 [1] does the source give for `COc1cc(Cc2cnc(N)nc2N)cc(/C=C/C(=O)N2N=Cc3ccccc3[C@@H]2c2cnc(N3CCOCC3)nc2)c1OC` here?
**A.** 98 nM

**Q.** What about the MIC (Staphylococcus aureus [2]) of the same compound?
**A.** 2 µg/mL (≈ 3.29 µM)

**Q.** What about the IC50 (Dihydrofolate reductase) of the same compound?
**A.** 64.4 nM

**Q.** What about the MIC [3] of the same compound?
**A.** 0.25 µg/mL (≈ 0.411 µM)

**Q.** What about the MIC (Staphylococcus aureus [4]) of the same compound?
**A.** 1 µg/mL (≈ 1.65 µM)

**Q.** What about the IC50 [5] of the same compound?
**A.** 8.9 nM

**Q.** What about the MIC (Staphylococcus aureus [6]) of the same compound?
**A.** 1 µg/mL (≈ 1.65 µM)

**Q.** And the MIC [7]?
**A.** 2 µg/mL (≈ 3.29 µM)
